These results are taken from patent US20090054469A1, “QUINAZOLINONE DERIVATIVES AND THEIR USE AS B-RAF INHIBITORS” (ASTRAZENECA AB, priority 2005, published 2009).

The assay concerns the target T1, human recombinant, purified wild type His-B-Raf protein kinase (Homo sapiens, UniProt P15056).
T1 construct: His
As to the kind of experiment: B-Raf In Vitro ELISA Assay. The format is biochemical. Particulars: 2.5 nM B-Raf, 0.15 μM MEK1, 10 μM ATP; 1 hour preincubation at 25° C.; phosphorylation of MEK1. On the procedure: B-Raf In Vitro ELISA Assay
Activity of human recombinant, purified wild type His-B-Raf protein kinase was determined in vitro using an enzyme-linked immunosorbent assay (ELISA) assay format, which measures phosphorylation of the B-Raf substrate, human recombinant, purified His-derived (detagged) MEK1. The reaction utilized 2.5 nM B-Raf, 0.15 μM MEK1 and 10 μM adenosine triphosphate (ATP) in 40 mM N-(2-hydroxyethyl)piperazine-N′-(2-ethanesulfonic acid hemisodium salt (HEPES), 5 mM 1,4-dithio-DL-threitol (DTT), 10 mM MgCl2, 1 mM ethylenediaminetetraacetic acid (EDTA) and 0.2 M NaCl (1×HEPES buffer), with or without compound at various concentrations, in a total reaction volume of 25 μl in 384 well plates. B-Raf and compound were preincubated in 1×HEPES buffer for 1 hour at 25° C. Reactions were initiated with addition of MEK1 and ATP in 1×HEPES buffer and incubated at 25° C. for 50 minutes and reactions stopped by addition of 10 μl 175 mM EDTA (final concentration 50 mM) in 1×HEPES buffer. 5 μl of the assay mix was then diluted 1:20 into 50 mM EDTA in 1×HEPES buffer, transferred to 384 well black high protein binding plates and incubated overnight at 4° C. […] Blue fluorescent product was detected at excitation 325 nm and emission 420 nm using a TECAN Ultra plate reader. Data was graphed and IC50s calculated using Excel Fit (Microsoft).
For orientation: In an ELISA, binding on a coated surface is turned into a signal by an enzyme label.

T1 sequence (P15056 whole entry): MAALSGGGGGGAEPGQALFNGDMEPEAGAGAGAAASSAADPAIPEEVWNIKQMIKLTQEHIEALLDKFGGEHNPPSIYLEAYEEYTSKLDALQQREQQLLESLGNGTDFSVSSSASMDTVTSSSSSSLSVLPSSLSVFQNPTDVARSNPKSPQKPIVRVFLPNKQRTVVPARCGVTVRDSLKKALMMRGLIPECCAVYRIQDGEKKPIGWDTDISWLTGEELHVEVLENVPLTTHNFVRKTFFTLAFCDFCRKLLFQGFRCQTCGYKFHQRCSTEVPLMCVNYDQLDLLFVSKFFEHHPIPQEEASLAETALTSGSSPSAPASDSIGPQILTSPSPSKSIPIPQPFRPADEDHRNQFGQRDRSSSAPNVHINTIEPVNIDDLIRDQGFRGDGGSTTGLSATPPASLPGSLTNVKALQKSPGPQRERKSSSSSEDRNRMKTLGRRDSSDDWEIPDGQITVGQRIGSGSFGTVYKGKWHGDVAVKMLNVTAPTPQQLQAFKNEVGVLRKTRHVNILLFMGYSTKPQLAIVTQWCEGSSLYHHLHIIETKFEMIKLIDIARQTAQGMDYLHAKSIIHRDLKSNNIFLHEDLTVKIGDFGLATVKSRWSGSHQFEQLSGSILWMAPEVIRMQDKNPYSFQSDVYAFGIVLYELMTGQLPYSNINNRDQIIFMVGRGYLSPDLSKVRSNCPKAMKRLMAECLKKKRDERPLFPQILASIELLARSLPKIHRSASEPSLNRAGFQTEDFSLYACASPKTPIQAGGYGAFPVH

The IC50 is the point on the concentration scale where inhibition reaches its midpoint. For the compound `Cc1ccc(NC(=O)c2cccc(C(C)(C)C#N)c2)cc1NC(=O)c1ccc2ncn(C)c(=O)c2c1` [Example 6, N-(5-{[3-(1-Cyano-1-methylethyl)benzoyl]amino}-2-methylphenyl)-3-methyl-4-oxo-3,4-dihydroquinazoline-6-carboxamide], the IC50 worked out at 3 nM.
With `Cc1ccc(NC(=O)c2cccc(C(C)(C)C#N)c2)cc1NC(=O)c1ccc2nc[nH]c(=O)c2c1` [Example 1, N-(5-{[3-(1-Cyano-1-methylethyl)benzoyl]amino}-2-methylphenyl)-4-oxo-3,4-dihydroquinazoline-6-carboxamide] the figure was 1 nM.
